For series [1] the following is noted: the molecule shown is the open-chain precursor, rcm bond, Grubbs catalyst (General procedure 7).
Series [2] deals with NQO1 activation in BEAS-2B cells. In words: BEAS-2B cellular MTT assay of NQO1 activation, 0.3% HSA. It counts as cell-based. In short, it runs like this: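 MTT read-out in BEAS-2B cells grown in BEBM with SingleQuots, no GA-1000, kept below 70% confluence; plates coated with collagen, with 0.3% or 0% HSA medium, seeded to 95-100% confluency at 48 h, 37 °C, 5% CO2.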
Series [3] deals with HIS-Keap1 full length / Biotin-Nrf2 (16-mer) (Homo sapiens, UniProt Q14145). In words: biochemical.
Series [4] deals with NQO1 activation in BEAS-2B cells. In words: BEAS-2B cellular MTT assay of NQO1 activation, 0% HSA. It counts as cell-based. In short, it runs like this:
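For the 0% HSA condition, cells were seeded into collagen plates in HSA-free medium. Culture was BEAS-2B in BEBM plus BEGM SingleQuots lacking GA-1000, held under 70% confluence, at a seeding density reaching 95-100% confluence by 48 h.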
Background: Formazan colour is commonly taken as a measure of viable cells.

Where [5] appears, read: Homo sapiens, BEAS+, read-out: BEAS+ EC50.
The mark [6] stands for this setting: Homo sapiens, serum free, read-out: BEAS EC50 (nM) serum free.
[7] abbreviates: serum free, read-out: BEAS EC50 (nM) serum free.
Setting [8] is: BEAS+ W, read-out: BEAS+ W EC50.
[9] abbreviates: Homo sapiens, BEAS+ W, read-out: BEAS+ W EC50.
Where [10] appears, read: Homo sapiens, Serum Free W, read-out: BEAS EC50 (nM) Serum Free W.
Where [11] appears, read: Serum Free W, read-out: BEAS EC50 (nM) Serum Free W.

Several values for one entry are separate records, joined by “and”; a condition that tells them apart may be missing. Identical values can stand only once. Like-named read-outs stand apart in the source and are kept apart here.

Chain of HIS-Keap1 full length / Biotin-Nrf2 (16-mer) (Q14145 whole entry): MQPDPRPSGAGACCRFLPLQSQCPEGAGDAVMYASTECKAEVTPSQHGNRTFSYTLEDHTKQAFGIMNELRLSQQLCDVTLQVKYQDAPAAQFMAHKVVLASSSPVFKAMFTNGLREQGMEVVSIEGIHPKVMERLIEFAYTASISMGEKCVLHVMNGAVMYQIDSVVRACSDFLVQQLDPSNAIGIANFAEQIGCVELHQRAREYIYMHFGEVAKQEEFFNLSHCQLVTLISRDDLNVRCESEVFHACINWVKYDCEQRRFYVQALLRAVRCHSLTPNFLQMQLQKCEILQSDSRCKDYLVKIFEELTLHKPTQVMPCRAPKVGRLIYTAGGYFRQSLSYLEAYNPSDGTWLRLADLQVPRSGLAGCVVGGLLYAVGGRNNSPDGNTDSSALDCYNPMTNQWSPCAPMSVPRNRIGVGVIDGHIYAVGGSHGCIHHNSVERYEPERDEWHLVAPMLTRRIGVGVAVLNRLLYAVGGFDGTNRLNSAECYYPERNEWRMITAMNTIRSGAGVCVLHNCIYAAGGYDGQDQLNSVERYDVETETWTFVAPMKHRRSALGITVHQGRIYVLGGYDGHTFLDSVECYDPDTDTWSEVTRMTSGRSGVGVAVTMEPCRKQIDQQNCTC

For the compound “amide of methyl 3-(4-methyl-1-(pent-4-en-1-yl)-1H-benzo[d][1,2,3]triazol-5-yl)-3-(1,2,3,4-tetrahydroisoquinolin-7-yl)propanoate with 1-methyl-5-vinyl-1H-indole-3-carboxylic acid”, the ring closure, isolated yield in series [1] (21-membered ring) turned out to be 65%.
“amide of rel-methyl (S)-3-(4-methyl-1-(pent-4-en-1-yl)-1H-benzo[d][1,2,3]triazol-5-yl)-3-(1,2,3,4-tetrahydroisoquinolin-7-yl)propanoate with 4-allylbenzoic acid” displayed a ring closure, isolated yield in series [1] (22-membered ring) of 99%.
The term EC50 denotes the concentration needed to bring the measured effect to its halfway point. As usually defined, the IC50 is the concentration needed to halve the response being measured. High values mean weaker potency in that assay, low ones greater potency in that assay. For `Cc1c2cnc3c1nnn3CCCCCc1cc(F)c(c(F)c1)C(=O)N1CCc3ccc(cc3C1)[C@H]2CC(=O)O` [Compound 139], the EC50 was 0.3 nM in series [2] (BEAS+, read-out: BEAS+ EC50); 0.2 nM in series [2] (setting [5]); 0.2 nM in series [4] (setting [6]). The midpoint of inhibition in series [3], the IC50, lay at 0.1 nM.
For the compound `Cc1cc2ccc1C(=O)N1CCc3ccc(cc3C1)C(CC(=O)O)c1cnc(nc1C)OCCCCO2` (centres unmarked) [Compound 195], the values for the half-maximal effective concentration (EC50) in series [2] (setting [5]), in series [4] (setting [6]) and in series [4] (setting [7]) were more than 10000 nM, 5570 nM and more than 10000 nM, respectively. The IC50 in series [3] was 62.3 nM and 69.9 nM.
For `Cc1c2ccc3c1nnn3CCCCCOc1ccc(cc1)C(=O)N1CCc3ccc(cc3C1)[C@@H]2[C@@H](C)C(=O)O` [Compound 118], the EC50 was 4.4 nM and 3.6 nM and 6.5 nM in series [2] (setting [8]); 3.8 nM in series [2] (setting [9]); 2.5 nM in series [4] (setting [10]); 4.2 nM in series [4] (setting [11]). The compound further displayed a 50% inhibitory concentration (IC50) in series [3] of 0.4 nM.
For the compound `Cc1c2ccc3c1nnn3CCCCCCc1ccc3c(c1)cc(n3C)C(=O)N1CCc3ccc(cc3C1)[C@@H]2[C@H](C)C(=O)O` [Compound 34], the concentration for a half-maximal effect (EC50) in series [2] (setting [8]) is 189 nM; in series [2] (setting [9]), 190 nM; in series [4] (setting [10]), 3.6 nM; in series [4] (setting [11]) it was 3.8 nM. Further, the IC50 in series [3] is 1.7 nM and 0.6 nM.
Regarding `Cc1cc2ccc1C(=O)N1CCc3ccc(cc3C1)[C@H](CC(=O)O)c1ccc3c(nnn3CCC/C=C/C2)c1C` [Compound 389], the EC50 amounted to 409 nM in series [2] (BEAS+, read-out: BEAS+ EC50); 231 nM in series [2] (setting [5]); 147 nM in series [4] (setting [6]); 153 nM in series [4] (setting [7]). For the same compound, the IC50 in series [3] is 1.8 nM and 1.9 nM.
As for `O=C(O)CC1c2ccc(cc2)OCCCCCOc2ccc(cc2)C(=O)N2CCc3ccc1cc3C2` (centres unmarked) [Compound 399], the EC50 in series [2] (BEAS+, read-out: BEAS+ EC50) stood at 2000 nM; in series [2] (setting [5]), 1980 nM; in series [4] (setting [6]), 479 nM; in series [4] (setting [7]), 407 nM. Also, the IC50 in series [3] is > 1000 nM and 335 nM.
For the compound `Cc1c2ccc3c1nnn3CCCCCc1cnc3c(c1)cc(n3C)C(=O)N1CCc3ccc(cc3C1)[C@@H]2CC(=O)O` [Compound 112], the EC50 in series [2] (setting [8]) is 25.5 nM; in series [2] (setting [9]) it was 23 nM; in series [4] (setting [10]) it was 2.9 nM; in series [4] (setting [11]), 2.7 nM. In series [3], 0.3 nM corresponded to half-maximal inhibition (IC50).
On to `Cc1c2ccc3c1nnn3CCCCCOc1ccc(cc1F)C(=O)N1CCc3ccc(cc3C1)C2CC(=O)O` (centres unmarked) [Compound 275], for which the concentration giving a half-maximal response (EC50) in series [2] (setting [5]) turned out to be 85.9 nM; in series [4] (setting [6]) it was 123 nM. In series [3], this compound returned an IC50 of 1.9 nM.
Regarding `O=C(O)CC1c2ccc(nc2)OCCCCCCOc2ccc(cc2)C(=O)N2CCc3ccc1cc3C2` (centres unmarked) [Compound 319], the values for the EC50 in series [2] (setting [5]) and in series [4] (setting [6]) were 1430 nM and 432 nM, respectively. In addition, the IC50 in series [3] was 99 nM and 106 nM.
Regarding `Cc1c2cnc3c1nnn3CCCCCCCc1ccc(cc1)C(=O)N1CCc3ccc(cc3C1)[C@@H]2CC(=O)O` [Compound 77], the EC50 came out at 45.3 nM in series [2] (setting [8]), 34.5 nM in series [2] (setting [9]), 11.7 nM in series [4] (setting [10]) and 13.7 nM in series [4] (setting [11]). Also, in series [3], the IC50 was 0.4 nM and 0.8 nM.
For the compound `O=C(O)CC1c2ccc(cc2)OCCCCCCOc2ccc(cc2)C(=O)N2CCc3ccc1cc3C2` (centres unmarked) [Compound 391], the EC50 in series [2] (BEAS+, read-out: BEAS+ EC50) was found to be 1950 nM; in series [2] (setting [5]) it was 2060 nM; in series [4] (setting [6]), 8.8 nM; in series [4] (setting [7]), 7.9 nM. For the same compound, the IC50 in series [3] was 276 nM and 265 nM.
As to `Cc1c2ccc3c1nnn3CCCCCc1ccc3c(c1)nc(n3C)C(=O)N1CCc3ccc(cc3C1)C2CC(=O)O` (centres unmarked) [Compound 205], the EC50 in series [2] (BEAS+, read-out: BEAS+ EC50) was 507 nM; in series [2] (setting [5]), 372 nM; in series [4] (setting [6]) it was 318 nM; in series [4] (setting [7]), 329 nM. Besides, in series [3], the IC50 is 2.7 nM and 3 nM.
Regarding `Cc1cc2ccc1C(=O)N1CCc3ccc(cc3C1)[C@@H]([C@H](C)C(=O)O)c1ccc3c(c1)nnn3CCCCCCO2` [Compound 294], the results for the EC50 in series [2] (setting [5]) and in series [4] (setting [6]) were 809 nM and 450 nM, respectively. Also, the IC50 in series [3] was 22.1 nM and 17.3 nM.
With `Cc1c2ccc3c1nnn3CCCCCOc1ccc3ccc(cc3c1)C(=O)N1CCc3ccc(cc3C1)C2CC(=O)O` (centres unmarked) [Compound 388], the EC50 in series [2] (BEAS+, read-out: BEAS+ EC50) amounted to 876 nM; in series [2] (setting [5]) it was 464 nM; in series [4] (setting [6]), 51.4 nM; in series [4] (setting [7]), 44.2 nM. This compound displayed an IC50 in series [3] of 1.6 nM.
Take `Cc1c2ccc3c1nnn3CCCCCc1cc(F)c(c(F)c1)C(=O)N1CCc3ccc(cc3C1)C2CC(=O)O` (centres unmarked) [Compound 263]: the values for the EC50 in series [2] (setting [5]) and in series [4] (setting [6]) were 20.4 nM and 18.3 nM, respectively. The IC50 in series [3] was 2.7 nM and 3 nM.
In the case of `Cc1c2ccc3c1nnn3CCCOCCc1ccc(c(F)c1)C(=O)N1CCc3ccc(cc3C1)[C@H]2CC(=O)O` [Compound 357], the EC50 in series [2] (setting [8]) is 1710 nM; in series [2] (setting [9]), 1940 nM; in series [4] (setting [10]) it was more than 1000 nM; in series [4] (setting [11]), 969 nM. Besides, in series [3], the IC50 was 11.4 nM and 11 nM.
For `Cc1c2ccc3c1nnn3C/C=C/COCc1ccc(c(F)c1)C(=O)N1CCc3ccc(cc3C1)C2CC(=O)O` (centres unmarked) [Compound 386], the EC50 in series [2] (BEAS+, read-out: BEAS+ EC50) was found to be 105 nM; in series [2] (setting [5]) it was 123 nM; in series [4] (setting [6]) it was 90.3 nM; in series [4] (setting [7]) it was 89 nM. Further, the IC50 in series [3] is 1.9 nM and 2 nM.
Consider `O=C(O)CC1c2ccc(nc2)OCCCCCc2cc(F)c(c(F)c2)C(=O)N2CCc3ccc1cc3C2` (centres unmarked) [Compound 187], for which the EC50 is 19.1 nM in series [2] (BEAS+, read-out: BEAS+ EC50); 22 nM in series [2] (setting [5]); 9.3 nM in series [4] (setting [6]); 8.9 nM in series [4] (setting [7]). Further, the IC50 in series [3] was 5.9 nM and 5.6 nM.
With `Cc1c2ccc3c1nnn3CCCOCCOc1cc(F)c(c(F)c1)C(=O)N1CCc3ccc(cc3C1)[C@@H]2[C@H](C)C(=O)O` [Compound 366], the 50% effective concentration (EC50) in series [2] (BEAS+, read-out: BEAS+ EC50) amounted to 1180 nM; in series [2] (setting [5]), 1070 nM; in series [4] (setting [6]), 580 nM; in series [4] (setting [7]), 442 nM. Further, the IC50 in series [3] is 5.6 nM and 5.3 nM.
With `O=C(O)CC1c2ccc3c(c2)CN(CC3)C(=O)c2ccc(cc2F)CCCCCCn2nnc3cc1ccc32` (centres unmarked) [Compound 278], the values for the EC50 in series [2] (setting [5]) and in series [4] (setting [6]) were 159 nM and 136 nM, respectively. Further, the IC50 in series [3] was 1.8 nM (2×) and 1.4 nM and 1.3 nM.
As for `Cc1cc2ncc1[C@@H](CC(=O)O)c1ccc3c(c1)CN(CC3)C(=O)c1ccc(cc1)COCCCO2` [Compound 81], the concentration giving a half-maximal response (EC50) in series [2] (setting [8]) is 1950 nM; in series [2] (setting [9]), 2160 nM; in series [4] (setting [10]), more than 1000 nM; in series [4] (setting [11]), 1840 nM. For the same compound, in series [3], the IC50 was 251 nM and 220 nM.
In the case of `O=C(O)CC1c2cnc(nc2)OCCCCCc2ccc(cc2)C(=O)N2CCc3ccc1cc3C2` (centres unmarked) [Compound 277, 2-(2-oxo-12-oxa-1,14,28-triazapentacyclo[16.5.3.23,6.213,16.021,25]triaconta-3,5,13(28),14,16(27),18(26),19,21(25),29-nonaen-17-yl)acetic Acid], the concentration for a half-maximal effect (EC50) in series [2] (setting [5]) was found to be 3350 nM; in series [4] (setting [6]), 459 nM. The 50% inhibitory concentration (IC50) in series [3] is 2.5 nM and 1.9 nM and 2.7 nM and 1.7 nM.
